From patent US11014895B2, “Heterocyclic urea compound, and drug composition and application thereof” (CHINA PHARMACEUTICAL UNIVERSITY, priority 2017, dated 2021)

Experiments:
IDO1 enzyme = IDO1 enzyme (Homo sapiens, UniProt P14902); assay: Determination of biochemical activity of IDO1 enzyme (absorbance at 320 nm); settings: room temperature, 3 hours
Outline: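 Enzyme and compound were reacted in sodium hydrogen phosphate buffer (pH 7-8) for 3 hours at room temperature. Absorbance at 320 nm gave inhibition rate, and IC50 was calculated from it.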

[1] = biological target: T1, IDO1 enzyme in the Hela cell (Homo sapiens, UniProt P14902); assay: Cell activity: interferon γ-stimulated Hela cells, absorbance of supernatant at 480 nm; type: cell-based; settings: interferon γ 100 ng/ml, 72 hours
T1 construct: endogenous in cells; host or cells: HeLa cells stimulated with interferon γ (100 ng/ml)
Outline: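 HeLa cells treated with compound plus interferon γ (100 ng/ml final) and cultured 72 h at 37 °C. Supernatant treated with trichloroacetic acid 30 min at 50 °C, centrifuged, then mixed with 2% dimethylaminobenzaldehyde in acetic acid; absorbance read at 480 nm.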

T1 sequence (P14902 whole entry): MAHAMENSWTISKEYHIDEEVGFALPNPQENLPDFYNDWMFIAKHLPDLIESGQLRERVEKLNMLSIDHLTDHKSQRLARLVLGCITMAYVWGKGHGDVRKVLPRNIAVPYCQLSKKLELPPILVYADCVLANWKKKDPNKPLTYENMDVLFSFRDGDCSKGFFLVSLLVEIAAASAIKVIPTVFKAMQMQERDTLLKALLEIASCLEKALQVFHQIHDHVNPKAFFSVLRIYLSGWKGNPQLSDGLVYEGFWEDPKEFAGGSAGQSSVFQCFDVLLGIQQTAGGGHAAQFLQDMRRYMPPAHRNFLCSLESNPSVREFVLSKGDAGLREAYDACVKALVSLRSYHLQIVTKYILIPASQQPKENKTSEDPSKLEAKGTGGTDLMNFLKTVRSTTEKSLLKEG
Sequence of IDO1 enzyme (P14902 whole entry): as above

Row | Compound | IC50 (IDO1 enzyme) [µM] | IC50 [1] [µM]
1 | O=C(Nc1cocc1/C(=N/O)Nc1ccc(F)c(Br)c1)NC1CCCC1 [Embodiment 62, (Z)-1-(4-(N-(3-bromo-4-fluorophenyl)-N′-hydroxyaminoiminomethyl)-furan-3-substituted)-3-cyclopentylurea] | 0.1 to 1 | 0.1 to 1
2 | O=C(Nc1ccsc1)Nc1cocc1/C(=N/O)Nc1ccc(F)c(Br)c1 [Embodiment 78] | > 1 | > 1
3 | N=C(NCCCO)Nc1nonc1/C(=N/O)Nc1ccc(F)c(Br)c1 [Embodiment 151, (Z)-1-(4-(N-(3-bromo-4-fluorophenyl)-N′-hydroxyaminoiminomethyl)-1,2,5-oxadiazole-3-substituted)-3-(3-hydroxypropyl)guanidine] | < 0.001 | < 0.001
4 | O=C(Nc1cocc1/C(=N/O)Nc1ccc(F)c(Br)c1)NC1CCC(O)CC1 (stereo not shown) [Embodiment 63, (Z)-1-(4-(N-(3-bromo-4-fluorophenyl)-N′-hydroxyaminoiminomethyl)-furan-3-substituted)-3-(4-hydroxycyclohexyl)urea] | < 0.001 | < 0.001
5 | O=C(Nc1ccccc1)Nc1conc1/C(=N/O)Nc1ccc(F)c(Cl)c1 [Embodiment 113, (Z)-1-(4-(N-(3-chloro-4-fluorophenyl)-N′-hydroxyaminoiminomethyl)-isoxazole-3-substituted)-4-phenylurea] | 0.1 to 1 | 0.1 to 1
6 | COc1ccc(NC(=O)Nc2nonc2/C(=N/O)Nc2ccc(F)c(Br)c2)cc1 [Embodiment 1, (Z)-1-(4-(N-(3-bromo-4-fluorophenyl)-N′-hydroxyaminoiminomethyl)-1,2,5-oxadiazole-3-substituted)-3-(4-methoxyphenyl)urea] | 0.1 to 1 | 0.1 to 1
7 | COc1cccc(NC(=O)Nc2cocc2/C(=N/O)Nc2ccc(F)c(Br)c2)c1 [Embodiment 59, (Z)-1-(4-(N-(3-bromo-4-fluorophenyl)-N′-hydroxyaminoiminomethyl)-furan-3-substituted)-3-(3-methoxyphenyl)urea] | > 1 | > 1
8 | O=C(Nc1nonc1/C(=N/O)Nc1ccc(F)c(Br)c1)NC1CCOCC1 [Embodiment 10, (Z)-1-(4-(N-(3-bromo-4-fluorophenyl)-N′-hydroxyaminoiminomethyl)-1,2,5-oxadiazole-3-substituted)-3-(tetrahydro-2H-pyran-4-substituted)urea] | < 0.001 | < 0.001
9 | O=C(NCCO)Nc1cocc1/C(=N/O)Nc1ccc(F)c(Br)c1 [Embodiment 68, (Z)-1-(4-(N-(3-bromo-4-fluorophenyl)-N′-hydroxyaminoiminomethyl)-furan-3-substituted)+3-(2-hydroxyethyl)urea] | 0.1 to 1 | 0.1 to 1
10 | O=C(NCCO)Nc1nonc1/C(=N/O)Nc1ccc(F)c(Cl)c1 [Embodiment 28, (Z)-1-(4-(N-(3-chloro-4-fluorophenyl)-N′-hydroxyaminoiminomethyl)-1,2,5-oxadiazole-3-substituted)-3-(23-hydroxyethane)urea] | < 0.001 | < 0.001
11 | CS(=O)(=O)NCCNC(=O)Nc1nonc1/C(=N/O)Nc1ccc(F)c(Cl)c1 [Embodiment 29, (Z)-1-(4-(N-(3-chloro-4-fluorophenyl)-N′-hydroxyaminoiminomethyl)-1,2,5-oxadiazole-3-substituted)-3-(3-methamido-ethyl)urea] | < 0.001 | < 0.001
12 | O=C(Nc1nonc1/C(=N/O)Nc1ccc(F)c(Br)c1)N1CCOCC1 [Embodiment 49, (Z)-1-(4-(N-(3-bromo-4-fluorophenyl)-N′-hydroxyaminoiminomethyl)-1,2,5-oxadiazole-3-substituted)morpholine-1-carbamide] | 0.1 to 1 | 0.1 to 1
13 | O=C(Nc1ncccn1)Nc1nonc1/C(=N/O)Nc1ccc(F)c(Br)c1 [Embodiment 43, (Z)-1-(4-(N-(3-bromo-4-fluorophenyl)-N′-hydroxyaminoiminomethyl)-1,2,5-oxadiazole-3-substituted)-3-(pyrimidine-2-substituted)urea] | > 1 | > 1
14 | COc1ccc(NC(=S)Nc2conc2/C(=N/O)Nc2ccc(F)c(Cl)c2)cc1 [Embodiment 130, (Z)-1-(4-(N-(3-chloro-4-fluorophenyl)-N′-hydroxyaminoiminomethyl)-isoxazole-3-substituted)-4-(4-methoxyphenyl)thiourea] | 0.1 to 1 | 0.1 to 1
15 | O=C(Nc1nonc1/C(=N/O)Nc1ccc(F)cc1)NC1CCCCC1 [Embodiment 52, (Z)-1-(4-(N-(4-fluorophenyl)-N′-hydroxyaminoiminomethyl)-1,2,5-oxadiazole-3-substituted)-3-cyclohexylurea] | 0.1 to 1 | 0.1 to 1
16 | COc1cccc(NC(=O)Nc2conc2/C(=N/O)Nc2ccc(F)c(Br)c2)c1 [Embodiment 101, (Z)-1-(4-(N-(3-bromo-4-fluorophenyl)-N′-hydroxyaminoiminomethyl)-isoxazole-3-substituted)-4-(3-methoxyphenyl)urea] | 0.1 to 1 | 0.1 to 1

Row | Compound | IC50 (IDO1 enzyme) [µM] | IC50 [1] [µM]
17 | O=C(Nc1nocc1/C(=N/O)Nc1ccc(F)c(Br)c1)NC1CCNCC1 [Embodiment 85, (Z)-1-(4-(N-(3-bromo-4-fluorophenyl)-N′-hydroxyaminoiminomethyl)-isoxazole-3-substituted)-3-(piperidine-4-substituted)urea] | < 0.001 | < 0.001
18 | CC(C)NC(=O)Nc1cocc1/C(=N/O)Nc1ccc(F)c(Br)c1 [Embodiment 71, (Z)-1-(4-(N-(3-bromo-4-fluorophenyl)-N′-hydroxyaminoiminomethyl)-furan-3-substituted)-3-isopropylurea] | 0.1 to 1 | 0.1 to 1
19 | O=C(Nc1ccc(F)cc1)Nc1nonc1/C(=N/O)Nc1ccc(F)c(Br)c1 [Embodiment 5, (Z)-1-(4-(N-(4-bromo-3-fluorophenyl)-N′-hydroxyaminoiminomethyl)-1,2,5-oxadiazole-3-substituted)-3-(4-fluorophenyl)urea] | > 1 | > 1
20 | O=C(Nc1cocc1/C(=N/O)Nc1ccc(F)c(Br)c1)Nc1cccc2[nH]ccc12 [Embodiment 73, (Z)-1-(4-(N-(3-bromo-4-fluorophenyl)-N′-hydroxyaminoiminomethyl)-furan-3-substituted)-3-(4-aminoindole)urea] | 0.1 to 1 | 0.1 to 1
21 | NCCCNC(=O)Nc1nocc1/C(=N/O)Nc1ccc(F)c(Br)c1 [Embodiment 88, (Z)-1-(4-(N-(3-bromo-4-fluorophenyl)-N′-hydroxyaminoiminomethyl)-isoxazole-3-substituted)-3-(3-propyl)urea] | < 0.001 | < 0.001
22 | COc1ccc(NC(=S)Nc2cocc2/C(=N/O)Nc2ccc(F)c(Br)c2)cc1 [Embodiment 136, (Z)-1-(4-(N-(3-bromo-4-fluorophenyl)-N′-hydroxyaminoiminomethyl)-furan-3-substituted)-3-(4-methoxyphenyl)thiourea] | > 1 | > 1
23 | N=C(Nc1ccc(N)cc1)Nc1nonc1/C(=N/O)Nc1ccc(F)c(Br)c1 [Embodiment 142, (Z)-1-(4-(N-(3-bromo-4-fluorophenyl)-N′-hydroxyaminoiminomethyl)-1,2,5-oxadiazole-3-substituted)-3-(4-aminophenyl)guanidine] | < 0.001 | < 0.001
24 | N=C(Nc1ccccc1)Nc1cocc1/C(=N/O)Nc1ccc(F)c(Br)c1 [Embodiment 161, (Z)-1-(4-(N-(3-bromo-4-fluorophenyl)-N′-hydroxyaminoiminomethyl)-furan-3-substituted)-3-phenylguanidine] | 0.1 to 1 | 0.1 to 1
25 | CC(C)NC(=O)Nc1nocc1/C(=N/O)Nc1ccc(F)c(Br)c1 [Embodiment 92, (Z)-1-(4-(N-(3-bromo-4-fluorophenyl)-N′-hydroxyaminoiminomethyl)-isoxazole-3-substituted)-3-(isopropyl)urea] | 0.1 to 1 | 0.1 to 1
26 | O=C(Nc1ccccc1)Nc1cocc1/C(=N/O)Nc1ccc(F)c(Br)c1 [Embodiment 60, (Z)-1-(4-(N-(3-bromo-4-fluorophenyl)-N′-hydroxyaminoiminomethyl)-furan-3-substituted)-3-phenylurea] | > 1 | > 1
27 | O/N=C(\Nc1ccc(F)c(Br)c1)c1cocc1NC(=S)NC1CCCCC1 [Embodiment 138, (Z)-1-(4-(N-(3-bromo-4-fluorophenyl)-N′-hydroxyaminoiminomethyl)-furan-3-substituted)-3-cyclohexylthiourea] | 0.1 to 1 | 0.1 to 1
28 | NCCNC(=S)Nc1nonc1/C(=N/O)Nc1ccc(F)c(Br)c1 [Embodiment 129, (Z)-1-(4-(N-(3-bromo-4-fluorophenyl)-N′-hydroxyaminoiminomethyl)-1,2,5-oxadiazole-3-substituted)-3-(2-aminoethyl)thiourea] | 0.1 to 1 | 0.1 to 1
29 | COc1ccc(NC(=O)Nc2cocc2/C(=N/O)Nc2ccc(F)c(Br)c2)cc1 [Embodiment 58, (Z)-1-(4-(N-(3-bromo-4-fluorophenyl)-N′-hydroxyaminoiminomethyl)-furan-3-substituted)-3-(4-methoxyphenyl)urea] | 0.1 to 1 | 0.1 to 1
30 | O=C(Nc1cc[nH]c1)Nc1nonc1/C(=N/O)Nc1ccc(F)c(Br)c1 [Embodiment 40, (Z)-1-(4-(N-(3-bromo-4-fluorophenyl)-N′-hydroxyaminoiminomethyl)-1,2,5-oxadiazole-3-substituted)-3-(1H-pyrrole-3-substituted)urea] | 0.1 to 1 | 0.1 to 1
31 | N=C(NCCN)Nc1nonc1/C(=N/O)Nc1ccc(F)c(Br)c1 [Embodiment 153] | < 0.001 | < 0.001
32 | O=C(Nc1nonc1/C(=N/O)Nc1ccc(F)c(Br)c1)NC1CCC1 [Embodiment 31, (Z)-1-(4-(N-(3-bromo-4-fluorophenyl)-N′-hydroxyaminoiminomethyl)-1,2,5-oxadiazole-3-substituted)-3-cyclobutylurea] | 0.1 to 1 | 0.1 to 1
